ChEMBL document CHEMBL1201862, “PubChem BioAssay data set” (2004)
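48-hour exposure; five concentrations; linearly interpolated endpoints. Abbreviation: GI50, concentration required for 50% inhibition of growth.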 Activity calls are given as the source filed them. No stated cut-off is given here; in the data, active = GI50 up to about 1.1 µM and inactive = higher.

What was measured:
Test in all cases: NCI-60 cell line screen, 48 h
HCT-15 = tested on: HCT-15
COLO 205 = tested on: COLO 205
PC-3 = tested on: PC-3
LOX IMVI = tested on: LOX IMVI
T47D = tested on: T47D
SK-MEL-28 = tested on: SK-MEL-28
HCC 2998 = tested on: HCC 2998
OVCAR-8 = tested on: OVCAR-8
M14 = tested on: M14
A549 = tested on: A549
SK-MEL-5 = tested on: SK-MEL-5
A498 = tested on: A498
OVCAR-3 = tested on: OVCAR-3
SW-620 = tested on: SW-620
BT-549 = tested on: BT-549
DU-145 = tested on: DU-145
HT-29 = tested on: HT-29
NCI-H522 = tested on: NCI-H522
UACC-62 = tested on: UACC-62
IGROV-1 = tested on: IGROV-1
SR = tested on: SR
SK-OV-3 = tested on: SK-OV-3
U-251 = tested on: U-251
TK-10 = tested on: TK-10
SF-295 = tested on: SF-295
CCRF-CEM = tested on: CCRF-CEM
MDA-MB-435 = tested on: MDA-MB-435
786-0 = tested on: 786-0
KM12 = tested on: KM12
SK-MEL-2 = tested on: SK-MEL-2
ACHN = tested on: ACHN
MCF7 = tested on: MCF7
EKVX = tested on: EKVX
RXF 393 = tested on: RXF 393
UACC-257 = tested on: UACC-257
SN12C = tested on: SN12C
MDA-MB-231 = tested on: MDA-MB-231
RPMI-8226 = tested on: RPMI-8226
OVCAR-4 = tested on: OVCAR-4
NCI-H460 = tested on: NCI-H460
UO-31 = tested on: UO-31
Malme-3M = tested on: Malme-3M
SF-268 = tested on: SF-268
CAKI-1 = tested on: CAKI-1
HOP-62 = tested on: HOP-62
HCT-116 = tested on: HCT-116
Hs-578T = tested on: Hs-578T
NCI-H226 = tested on: NCI-H226
MDA-N = tested on: MDA-N
OVCAR-5 = tested on: OVCAR-5
SNB-75 = tested on: SNB-75
MOLT-4 = tested on: MOLT-4
K562 = tested on: K562
NCI/ADR-RES = tested on: NCI/ADR-RES
SNB-19 = tested on: SNB-19
NCI-H23 = tested on: NCI-H23
HL-60 = tested on: HL-60
HOP-92 = tested on: HOP-92

Measured: GI50

Cc1sc2c(c1C)C(=O)c1cccn1-2
inactive: COLO 205 > 100 µM | PC-3 65.3 µM | LOX IMVI 64.9 µM | T47D 39.8 µM | SK-MEL-28 > 100 µM | HCC 2998 > 100 µM | OVCAR-8 > 100 µM | M14 > 100 µM | A549 60.5 µM | SK-MEL-5 > 100 µM | A498 60 µM | OVCAR-3 > 100 µM | SW-620 72.6 µM | BT-549 47.2 µM | DU-145 95.3 µM | HT-29 53.8 µM | NCI-H522 92 µM | UACC-62 62.7 µM | IGROV-1 64.7 µM | SR 19.3 µM | SK-OV-3 > 100 µM | U-251 61.7 µM | TK-10 > 100 µM | SF-295 > 100 µM | CCRF-CEM 56.1 µM | MDA-MB-435 56.6 µM | 786-0 87.7 µM | KM12 > 100 µM | SK-MEL-2 > 100 µM | ACHN > 100 µM | MCF7 68.5 µM | EKVX 56.4 µM | RXF 393 59 µM | UACC-257 > 100 µM | SN12C 78.2 µM | MDA-MB-231 96.4 µM | RPMI-8226 50.7 µM | OVCAR-4 > 100 µM | NCI-H460 > 100 µM | UO-31 54.7 µM | Malme-3M > 100 µM | SF-268 > 100 µM | CAKI-1 85.7 µM | HOP-62 > 100 µM | HCT-116 61.2 µM | Hs-578T 37.7 µM | NCI-H226 > 100 µM | MDA-N 28.6 µM | OVCAR-5 > 100 µM | SNB-75 35.2 µM | MOLT-4 38.8 µM | K562 38.8 µM | NCI/ADR-RES > 100 µM | SNB-19 > 100 µM
> 100 µM: HCT-15

CC1(C)CC[C@]2(C(=O)O)CC[C@]3(C)C(=CC[C@@H]4[C@@]5(C)CC[C@H](OC6OC(CO)C(O)C(O)C6OC6OC(CO)C(O)C(O)C6O)C(C)(C)[C@@H]5CC[C@]43C)[C@@H]2C1 (some centres not stated)
18 µM: HCT-15
inactive: COLO 205 15.4 µM | PC-3 17 µM | LOX IMVI 28.2 µM | T47D 21.3 µM | SK-MEL-28 14.6 µM | HCC 2998 20.8 µM | OVCAR-8 19.4 µM | M14 16.2 µM | A549 18.3 µM | SK-MEL-5 19 µM | A498 18.5 µM | OVCAR-3 15.7 µM | SW-620 22.5 µM | BT-549 19.5 µM | DU-145 17.2 µM | HT-29 15.8 µM | NCI-H522 20.6 µM | NCI-H23 24.9 µM | UACC-62 19.3 µM | IGROV-1 18.9 µM | SR 22.5 µM | SK-OV-3 17.8 µM | U-251 2.38 µM | SF-295 18.8 µM | CCRF-CEM 21.2 µM | MDA-MB-435 20 µM | 786-0 16.6 µM | KM12 15.5 µM | ACHN 18.5 µM | MCF7 19.6 µM | EKVX 18.5 µM | RXF 393 19.1 µM | HL-60 21.9 µM | UACC-257 20.1 µM | SN12C 18.2 µM | MDA-MB-231 26.4 µM | RPMI-8226 23.2 µM | OVCAR-4 16.8 µM | NCI-H460 21 µM | UO-31 20.6 µM | Malme-3M 15.5 µM | SF-268 17.2 µM | CAKI-1 19.5 µM | HOP-62 17.8 µM | HCT-116 17.1 µM | HOP-92 17.6 µM | Hs-578T 24.2 µM | NCI-H226 17.6 µM | MDA-N 19.6 µM | OVCAR-5 2.49 µM | SNB-75 21.6 µM | MOLT-4 22.5 µM | K562 19.8 µM | NCI/ADR-RES 21.2 µM | SNB-19 18.3 µM
active: SK-MEL-2 0.0509 µM
